Reference: patent publication US7939580B2, “Dental composition containing epoxy functional polymerizable compounds” (3M Innovative Properties Company, priority 2004, dated 2011)

Legend:
[1] = Refractive index (Kruess AR 4 D Abbe refractometer); type: physicochemical; conditions: 20.0° C., wavelength 589 nm
Protocol: The refractive index of the halogenated epoxy functional ether derivative was measured with a Kruess AR 4 D device (refractometer according to Abbe's measure principle). The refractive index was measured at 20.0° C. and at a wavelength of 589 nm.

[2] = test system: Salmonella Strains TA98 and TA100; test: AMES mutagenicity testing protocol (OECD Guideline 471, ISO 10993-3); type: cell-based; parameters: key: tested to be non mutagenic
Description: The mutagenicity of the halogenated epoxy functional ether derivative according to the AMES mutagenicity testing protocol has been tested according to OECD Guideline 471 and ISO 10993-3 (2003).

| Molecule | Refractive Index [1] | Mutagenic [yes/no] [2] |
| --- | --- | --- |
| CC(C)(c1cc(Br)c(OCCCC2CO2)c(Br)c1)c1cc(Br)c(OCCCC2CO2)c(Br)c1 (stereo not shown) [Example 5, 2,2-Bis[3,5-dibromo-4-(4,5-epoxy-pentyloxy)-phenyl]-propane] | 1.604 | n^1) |
| 1,5-Bis[2-(2,3-epoxy-propyl)-4,6-dichloro-phenyl]-pentane [Example 2] | 1.561 | n^1) |
| CC(C)(c1cc(Cl)c(OCCCC2CO2)c(Cl)c1)c1cc(Cl)c(OCCCC2CO2)c(Cl)c1 (stereo not shown) [Example 3, 2,2-Bis[3,5-dichloro-4-(4,5-epoxy-pentyloxy)-phenyl]-propane] | 1.571 | n^1) |
| C[Si](CCC1CCC2OC2C1)(CCC1CCC2OC2C1)c1ccccc1 (stereo not shown) [Reference Compound 2, Bis[2-(3,4-epoxycyclohexyl)-ethyl]-methyl-phenyl-silane, reference compound] | 1.536 |  |
| CC(C)(c1ccc(OCCC2CO2)cc1)c1ccc(OCCC2CO2)cc1 (stereo not shown) [Reference Compound 4, 2,2-Bis[4-(3,4-epoxy-butyloxy)-phenyl]-propane, reference compound] | 1.563 |  |
| CC(C)(c1ccc(OCCCC2CO2)cc1)c1ccc(OCCCC2CO2)cc1 (stereo not shown) [Reference Compound 5, 2,2-Bis[4-(4,5-epoxy-pentyloxy)-phenyl]-propane, reference compound] | 1.551 |  |
| C[Si]1(CCC2CCC3OC3C2)O[Si](C)(CCC2CCC3OC3C2)O[Si](C)(CCC2CCC3OC3C2)O[Si](C)(CCC2CCC3OC3C2)O1 (stereo not shown) [Reference Compound 1, 1,3,5,7-Tetrakis[2-(3,4-epoxycyclohexyl)-ethyl]-1,3,5,7-tetramethyl-cyclotetrasiloxane, reference compound] | 1.496 |  |
| CC(C)(c1cc(Br)c(OCCC2CO2)c(Br)c1)c1cc(Br)c(OCCC2CO2)c(Br)c1 (stereo not shown) [Example 4, 2,2-Bis[3,5-dibromo-4-(3,4-epoxy-butyloxy)-phenyl]-propane] | 1.610 | n^1) |
| c1cc(OCC2CO2)ccc1Cc1ccc(OCC2CO2)cc1 (stereo not shown) [Reference Compound 3, Bis[4-(2,3-epoxy-propyloxy)-phenyl]-methane, reference compound] | 1.579 |  |
| Clc1cccc(CC2CO2)c1OCCC1CO1 (stereo not shown) [Example 6, 4-[2-(2,3-epoxy-propyl)-6-chloro-phenoxy]-1,2-epoxybutane] | 1.535 |  |
| 1,5-Bis[2-(2,3-epoxy-propyl)-6-chloro-phenyl]-pentane [Example 1] | 1.552 | n^1) |
